Paper PMC12040169 (PLOS Biology, 2025)

experiment: in vitro; details: human, hela cells, % viability

Row | Compound | viability at 28.5 h, 10 µM [%]
1 | Cc1cc(/C=C2/NC(=S)NC2=O)c(C)n1-c1ccc(Sc2ccc([N+](=O)[O-])cc2)cc1 [CBK263883] | 109
2 | Cc1ccc(NC(=O)CCC(=O)N/N=C/c2ccco2)c(C)c1 [CBK263885] | 96.4
3 | O=C1c2ccccc2C(=O)N1CSc1nnc2c3ccccc3n(CCc3ccccc3)c2n1 [CBK263891] | 97.7
4 | C=CCn1c2ccccc2c2nnc(SCC(=O)Nc3c(C)n(C)n(-c4ccccc4)c3=O)nc21 [CBK263892] | 87.6
5 | COc1ccc(C(=O)Nc2ccc(N3CCOCC3)c(Cl)c2)cc1[N+](=O)[O-] [CBK263894] | 100
6 | Cc1ccccc1C(=O)Nc1cccc(NC(=S)NC(=O)c2cccs2)c1 [CBK263895] | 93.1
7 | O=C(CSc1nc(-c2ccccc2)cc(-c2ccccc2)n1)Nc1cccc([N+](=O)[O-])c1 [CBK263896] | 97.9
8 | Cc1ccc2oc(-c3ccc(C)c(NC(=S)NC(=O)c4ccc([N+](=O)[O-])cc4)c3)nc2c1 [CBK263897] | 90.4
9 | O=C(COc1ccccc1)Nc1nnc[nH]1 [CBK263898] | 108
10 | Cn1c2ccc(Br)cc2c2nnc(SCC(=O)N3c4ccccc4Sc4ccccc43)nc21 [CBK263900] | 88.7
11 | O=C(CC(NC(=O)c1ccccc1)c1ccccc1)Nc1cccc2ccccc12 (stereo not drawn) [CBK263901] | 98.9
12 | COc1ccc(-c2c(C(F)(F)F)oc3cc(OC(=O)c4cccc(C)c4)ccc3c2=O)cc1OC [CBK263907] | 99.3
13 | Cc1cc(C)cc(Oc2coc3c(CN4CCOCC4)c(O)ccc3c2=O)c1 [CBK263908] | 89.7
14 | O=C(Cc1ccc(Cl)cc1)NC(=S)Nc1ccccc1[N+](=O)[O-] [CBK263909] | 95.4
15 | Cc1cc(C)nc(N/C(=N\C(=O)c2ccccc2)N2CCC(C(N)=O)CC2)n1 [CBK263910] | 99.4
16 | CS(=O)(=O)N(CC(=O)N/N=C/c1ccncc1)c1ccccc1Br [CBK263911] | 100
17 | Cc1c(NC(=O)COc2ccc([N+](=O)[O-])cc2)cccc1-c1nc2ncccc2o1 [CBK263912] | 105
18 | COc1ccc(-c2nnc3[nH]c(=O)n(C)c(=O)c3n2)cc1OC [CBK263914] | 89
19 | Cc1c(NC(=O)CSc2nnc3c4ccccc4n(C(C)C)c3n2)c(=O)n(-c2ccccc2)n1C [CBK263916] | 105
20 | O=C(O)c1ccccc1Nc1c2ccccc2nc2ccccc12 [CBK263921] | 96
21 | Cc1ccc2oc(-c3cc(NC(=S)NC(=O)c4ccc([N+](=O)[O-])cc4)ccc3O)nc2c1 [CBK263923] | 94.3
22 | Cc1ccc(OCC(=O)NC(=S)Nc2cccc(-c3nc4ncccc4o3)c2C)cc1 [CBK263925] | 109
23 | CCOC(=O)C(CO)NC(=O)c1cncc(Br)c1 (stereo not drawn) [CBK263926] | 83.8
24 | CC(Oc1ccc(/C=N/n2cnnc2)cc1)C(=O)O (stereo not drawn) [CBK263927] | 82
25 | Cc1ccc(OCC(=O)NC(=S)Nc2ccc(Cl)c(-c3nc4ncccc4o3)c2)cc1 [CBK263930] | 103

Row | Compound | viability at 28.5 h, 10 µM [%]
26 | Cc1ccc(/C=C2\SC(=S)N(CC(=O)Nc3cccc(C(=O)O)c3)C2=O)cc1 [CBK263935] | 86.2
27 | O=C(NCCNc1c(Cl)cccc1[N+](=O)[O-])c1cccc(Br)c1 [CBK263940] | 91.4
28 | O=C(CSc1nc2ccccc2[nH]1)n1c2c(c3ccccc31)CCCC2 [CBK263945] | 92.8
29 | Cc1c(/C=C2\SC(=S)NC2=O)c2ccccc2n1Cc1ccccc1Cl [CBK263946] | 101
30 | COc1cc(/C=C2\C(=O)NN(c3ccccc3)C2=O)ccc1OCCOc1cc(C)ccc1C [CBK263947] | 80.5
31 | CC(Oc1ccc(Cl)cc1Cl)C(=O)NC1CC(C)(C)NC(C)(C)C1 (stereo not drawn) [CBK263951C] | 90.3
32 | NCCNc1ccc(C(=O)Nc2cccc(Cl)c2)cc1[N+](=O)[O-] [CBK263953] | 85.3
33 | N=C1NC(=O)/C(=C/c2cccc(OCCOc3ccc(C4CCCCC4)cc3)c2)S1 [CBK263956] | 87.6
34 | O=C1CC(NCc2ccccc2)C(=O)N1c1ccc(N2C(=O)CC(NCc3ccccc3)C2=O)cc1 (stereo not drawn) [CBK263963] | 88.6
35 | COc1ccc(N(CC(=O)Nc2cccc3cccnc23)S(=O)(=O)c2ccc(C)cc2)cc1 [CBK263965] | 74
36 | CC(C)Oc1ccc(CCNC(=N)NC(=N)N)cc1Cl [CBK263966] | 91.5
37 | Cc1ccc(S(=O)(=O)N(CC(=O)Nc2cccnc2)c2ccc(F)cc2)cc1 [CBK263968] | 85.6
38 | COc1ccc(Cl)cc1NC(=O)CCSc1ccccc1 [CBK263969] | 85
39 | S=C(NCCC(c1ccccc1)c1ccccc1)Nc1ccc(Cl)c(Cl)c1 [CBK263972] | 85.1
40 | O=S(=O)(NCc1ccccn1)c1ccc(Cl)c(Cl)c1Cl [CBK263978] | 95.6
41 | O=C(Nc1ccc(-c2nc3ccccc3s2)c(O)c1)c1ccc(-c2ccccc2)cc1 [CBK263979] | 92.9
42 | Cc1ccc(N(CC(=O)Nc2ccc(S(=O)(=O)N3CCCCC3)cc2)S(C)(=O)=O)c(C)c1 [CBK263981] | 99.8
43 | O=C(COc1ccccc1[N+](=O)[O-])Nc1cc(C(=O)O)cc(C(=O)O)c1 [CBK263983] | 93.9
44 | CCOC(=O)c1ccccc1NC(=O)CC1Nc2ccccc2NC1=O (stereo not drawn) [CBK263990] | 91.3
45 | Cc1ccc(S(=O)(=O)NCCSc2ccccc2)cc1[N+](=O)[O-] [CBK263991] | 93.6
46 | O=C(Nc1ccc(S(=O)(=O)N2CCCCC2)cc1)c1ccc(CN2CCc3ccccc3C2)cc1 [CBK263993] | 90.7
47 | Cc1ccc(S(=O)(=O)N(CC(=O)NC2CC3CCC2C3)c2cc(Cl)cc(Cl)c2)cc1 (stereo not drawn) [CBK263995] | 85.3
48 | OC(CN1CCOCC1)Cn1c(-c2ccccc2)c(-c2ccccc2)c2ccc3ccccc3c21 (stereo not drawn) [CBK263996G] | 94.7
49 | Cc1ccc(CNC(=O)CN(c2cccc(C(F)(F)F)c2)S(=O)(=O)c2ccc(C)cc2)cc1 [CBK263997] | 89.3
50 | COc1ccccc1/C=C(/NC(=O)c1ccc(Cl)cc1Cl)C(=O)O [CBK263998] | 98.4

Row | Compound | viability at 28.5 h, 10 µM [%]
51 | O=C(CN(c1ccccc1F)S(=O)(=O)c1ccccc1)Nc1ccccc1C(=O)O [CBK263999] | 97.1
52 | COc1ccc(Cl)cc1NC(=O)C1CN(S(=O)(=O)c2ccccc2)CCN1S(=O)(=O)c1ccccc1 (stereo not drawn) [CBK264000] | 93.3
53 | O=S(=O)(NCCSc1ccccn1)c1ccc(Br)cc1 [CBK264001] | 99.3
54 | COc1ccc(Br)cc1S(=O)(=O)n1ccnc1C [CBK264003] | 87.1
55 | Cc1cc(C)c2oc(-c3cccc(NC(=O)c4cccc(Cl)c4Cl)c3C)nc2c1 [CBK264005] | 84.2
56 | Cc1ccccc1CSCC(=O)Nc1ccc(S(=O)(=O)N2CCCCC2)cc1 [CBK264006] | 103
57 | O=S(=O)(NCc1cccnc1)c1ccc(Cl)c2ccccc12 [CBK264008] | 89.5
58 | Cc1ccccc1CNC(=O)c1ccc(C)c([N+](=O)[O-])c1 [CBK264010] | 110
59 | O=C(CN(c1ccc(Cl)cc1)S(=O)(=O)c1ccccc1)Nc1ccc(F)cc1 [CBK264013] | 90.5
60 | OC(CNCCc1ccccc1)CN1c2ccccc2Sc2ccccc21 (stereo not drawn) [CBK264017G] | 97.6
61 | COc1ccc(I)cc1S(=O)(=O)NCc1ccccn1 [CBK264019] | 91.3
62 | Cc1ccc(S(=O)(=O)N(CC(=O)Nc2ccc(Cl)cc2C)c2cccc(Cl)c2C)cc1 [CBK264021] | 85.7
63 | Cc1ccc(-c2nc3cc(Cl)ccc3o2)cc1NC(=S)NC(=O)c1cccc(Cl)c1 [CBK264022] | 108
64 | COc1ccc(C(NC(=O)c2cccc(OC)c2)c2cc(Cl)c3cccnc3c2O)cc1 (stereo not drawn) [CBK264027] | 90.7
65 | O=C(CSCc1ccc([N+](=O)[O-])cc1)Nc1ccc2c(c1)OCO2 [CBK264031] | 95.7
66 | O=S(=O)(NCc1cccnc1)c1ccc(Cl)c(Cl)c1Cl [CBK264032] | 91.1
67 | O=C(Nc1ccc2oc(-c3cccnc3)nc2c1)c1ccc(-c2ccccc2)cc1 [CBK264035] | 88.3
68 | COc1cc(C(=O)Nc2ccc3oc(-c4cccnc4)nc3c2)ccc1OCc1ccc(Cl)cc1 [CBK264037] | 87.9
69 | Cc1ccc(N(CC(=O)Nc2ccc(Br)c(C)c2)S(=O)(=O)c2ccc(C)cc2)cc1 [CBK264038] | 94.6
70 | Cc1ccccc1CNC(=O)CCSc1ccc(Cl)cc1 [CBK264040] | 102
71 | CC(Oc1ccc(/C=C/[N+](=O)[O-])cc1)C(=O)O (stereo not drawn) [CBK264042] | 99.9
72 | CCCc1nc2oc3c(-c4ccccc4)c(C(=O)O)c(C)nc3c2c2c1COC(C)(C)C2 [CBK264044] | 89.2
73 | CCOC(=O)c1c(NC(=S)NC(=O)c2cccc(Cl)c2)sc2c1CCCC2 [CBK264045] | 88.2

same assay, conditions: human, hela cells, % viability, bulk resorufin, single well

Row | Compound | viability at 28.5 h, 10 µM [%]
74 | CN1C(=O)C(=Cc2ccc(-c3cccc([N+](=O)[O-])c3)o2)C(=O)N(C)C1=S [CBK263903] | 95.1
75 | Cc1ccc(OCCn2cc(/C=C3/C(=O)NC(=O)N(Cc4ccco4)C3=O)c3ccccc32)cc1 [CBK263936] | 92.9
76 | O=C1NC(=O)N(Cc2ccco2)C(=O)/C1=C\c1ccc(-c2ccc(Cl)c(C(=O)O)c2)o1 [CBK263937] | 97.9
77 | O=C1NC(=O)N(Cc2ccco2)C(=O)/C1=C\c1cn(Cc2ccccc2)c2ccccc12 [CBK263939] | 88.5
78 | Cc1cc(/C=C2\C(=O)NC(=S)N(c3ccccc3)C2=O)c(C)n1-c1cc(C(=O)O)cc(C(=O)O)c1 [CBK263975] | 105
79 | COc1ccc(N2C(=O)/C(=C/c3ccc(OCC(=O)O)c(Cl)c3)C(=O)NC2=S)cc1 [CBK264018] | 93.7
80 | Cc1cc(/C=C2\C(=O)NC(=O)N(c3ccccc3F)C2=O)c(C)n1-c1cc(C(=O)O)cc(C(=O)O)c1 [CBK264028] | 89.9
81 | Cc1cc(/C=C2\C(=O)NC(=O)N(c3cccc(F)c3)C2=O)c(C)n1-c1cc(C(=O)O)cc(C(=O)O)c1 [CBK264041] | 97.3
